Data as given in patent US7019000B1, “Method of treating a disease condition caused or exacerbated by an HPV” (Institute of Molecular & Cell Biology, priority 1998, dated 2006).

Experiments:
[1] = target: T1, binding of E6 with E6AP and E6BP (Human papillomavirus type 16, UniProt P03126); parameters: species or system HPV-16; details: for complex formation of GST-E6 with GST-E6AP/GST-E6BP, controls: 5 mM EDTA or 0.6% (170 mM) H2O2, 2 hrs at room temperature; for BIACORE (E6BP/E6AP): 400 μM compound, 2 hrs at room temperature, GST-E6 7 μM in 10 mM GSH
T1 construct: The full length HPV16 E6 gene was amplified via polymerase chain reaction and cloned in the vector pGeX4T2; made in house; host or cells: E. coli strain AB1899
Excerpt: BIACORE allows real time analysis of bimolecular interactions without the need for isotopic or enzymatic labelling. BIACORE technology is based on the optical surface plasmon resonance (SPR), a technique that allows for detecting small changes in the refractive index on the surface of a thin gold film coated with a dextran matrix. Typically, one of the binding partners (termed the ligand) is covalently linked to the dextran matrix, while the other partner (termed the analyte) is introduced in a flow passing over the surface. The change in refractive index resulting from the interaction of the molecules is expressed in resonance units (RU): a SPR response of 1000 RU corresponds to a change of the surface concentration of the analyte of 1 ng protein/mm^2. GST-E6AP and GST-E6BP were used as ligands and GSTE6 was used as the analyte. […] Further controls included using the dextran matrix alone or GST as the ligand.
Binding of GST-E6 to GST-E6BP, GST-E6AP and GST was monitored by surface plasmon resonance (SPR) on a BIACORE 2000 machine (Biacore AB, Uppsala, Sweden). […] Typically 6000–10000 RU of GST, E6BP and E6AP were immobilized on three difference flowcells. Aliquots of purified HPV-16 GST-E6 (7 μM in 10 mM GSH, 50 mM Tris/PBS buffer, pH 8.2) were incubated with either 400 μM compound, or 5 mM EDTA, or 0.6% (170 mM) H2O2 for 2 hrs at room temperature. Then 10 μl of sample was injected at 1 μl/min over the three immobilized ligands using the sequential flow mode. The interactions between GST-E6 and ligands were monitored by the change of resonance signal in arbitrary units (RU).

[2] = target: T2, HPV-16-E6 (recombinant GST-E6 protein) (Human papillomavirus type 16, UniProt P03126); assay: biochemical; assay type: biochemical; details: read-out: TSQ % (% values of Zinc release)
T2 construct: The full length HPV16 E6 gene was amplified via polymerase chain reaction and cloned in the vector pGeX4T2; made in house; host or cells: E. coli strain AB1899
Excerpt: Where the chelated metal is zinc, zinc release can be measured as an increase in the fluorescence of the zinc-selective fluorophore TSQ (N-(6-methoxy-8-quinolyl)-p-toluenesulfonamide) (18) in the presence of the protein and the active compound (TSQ assay).
In such an assay, the increase in fluorescence measured can be described as a percentage of the increase in fluorescence observed for a positive control compound which provides 100% zinc release. A suitable positive control compound is H2O2. Preferred compounds which may be useful in the present invention are those which release at least 30% of the chelated zinc as measured by the TSQ assay. Particularly preferred compounds for use in the present invention are those which release at least 40% of the chelated zinc, more preferably at least 50%.
In earlier studies, reduced glutathione (GSH) was required to elute recombinant glutathione sulfhydryl transferase E6 (recombinant (GST-E6)) protein during the purification process. However, the reducing activity of the GSH sulfhydryl groups protected GST-E6 protein from the chemical attack by agents, such as the disulphide based organic compounds of Formula (I) and (II). […] Individual assays were done in the presence of 9 μg GST-E6 protein, corresponding to a concentration of 1 μM GST-E6 protein and 2 μM bound zinc, assuming the presence of two Zn ions per protein.
Release of zinc from HPV-16-E6 was monitored by the change in fluorescence of the zinc-selective fluorophore TSQ (N-6-methoxy-8-quinolyl)-p-toluenesulfonamide), (Molecular Probes, Eugene, Oreg.) by modification of published procedures (25, 26, 27). In a total reaction volume of 200 μl, 9 μg (1 μM) recombinant GST-E6 protein (corresponding to a concentration of 1 μM), bound to glutathione-sepharose beads, were incubated with 10 μM of each compound or 0.6% (170 mM) H2O2 in TSQ-assay buffer (10 mM sodium phosphate buffer pH7.0, 10% glycerol) for 2 hours at room temperature (200 μl total volume in 96-well plates). Immediately after addition of 100 μM TSQ, the increase in fluorescence was measured on a SLT Fluostar (355 nm excitation filter and 460 nm emission filter, Tecan, Salzburg).
Values given are % values of Zinc release. The relative fluorescence units (RFU) were normalized to the amount of zinc released by H2O2 (regarded as 100%). The concentration of compound used was 10 μM for C27–C35, 13 μM for C37–C83, H2O2 was used at 0.3% for C27–C35 and 0.2% for C37–C83.

[3] = system: HPV containing cell lines as HeLa, SiHa and Caski, compared to HPV-negative cell lines MCF7, HEPG2, (HaCat, HT3, 444); assay: Cell viability (WST1 assay), panel of HPV-positive and HPV-negative cell lines; assay type: cell-based, human; details: for WST1: 50 μM in cell culture; for WST1-spec: 50 μM, HPV containing vs HPV-negative cell lines
Procedure: Zinc finger proteins are required for maintenance of cell viability. Preferably, the compounds for use in the present invention are specific in their ability to affect the viability of MPV containing cells, with little or no cytotoxic effects on the cellular functioning of healthy non-MPV containing cells. The viability of MPV-infected cells (and non infected cells) in the presence of compounds of Formulae (I) or (II) can be measured by incubating with the tetrazolium salt WST1 (Roche Molecular Biochemicals, Manneheim Germany) and measuring the absorption readings thereof (WST1 assay).
All cell lines were obtained from the American Type Culture Collection (Manassas, Va.) unless otherwise noted. SiHa (human cervical epithelial tumor line, HPV16-positive), CaSki (human cervical epithelial tumor line, HPV16-positive), HaCat (immortalized human skin epithelial cell line, HPV-negative), HeLa (human cervical epithelial tumor line, HPV18-positive), 444 (hybrid of HeLa and fibroblast, HPV18-positive) obtained from Eric Stanbridge (Universitv of California, Irvine), MCF7 (human mammary epithelial tumor cell line, HPV-negative), HT3 (human cervical epithelial tumor cell line, HPV-negative) was obtained from the German Cancer Research Institute/DKFZ-Heidelberg, and HepG2, (human liver epithelial tumor cell line, HPV-negative), were grown in Dulbecco's modified Eagle medium (DMEM) supplemented with 10% fetal calf serum, 100 U penicillin and 1000 U streptomycin. Cells were allowed to attach to the surface of microwell dishes overnight and subsequently, incubated with medium containing the zinc ejecting compounds at the concentrations (10–100 μM). Viability of the cells was scored by measuring the absorption of the tetrazolium salt WST1 (Roche Molecular Biochemicals, Mannheim, Germany) in an Elisa-plate reader (Tecan, Salzburg, Austria) at a wavelength of 450 nm and a reference wavelength of 630 nm.
A total of 10 000 cells per well were plated on 24 well plates, after attachment overnight, they were treated 3 times in 3 days with C16 at 10 μM and 50 μM. The activity of C16 was also compared with that of C4 (azodicarbonamide) which causes ejection of zinc from HIV-1 NCp7 and is currently used in clinical trials for the treatment of AIDS.

T1 sequence (P03126 whole entry): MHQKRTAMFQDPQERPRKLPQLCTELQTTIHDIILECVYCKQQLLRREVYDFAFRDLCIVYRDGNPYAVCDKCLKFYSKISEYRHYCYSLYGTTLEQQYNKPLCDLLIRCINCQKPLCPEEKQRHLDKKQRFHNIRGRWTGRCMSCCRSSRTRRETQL
T2 sequence (P03126 whole entry): as above

Row | SMILES | complex formation of GST-E6 with GST-E6AP/GST-E6BP, controls [1] | activation at 13 µM [2] | WST1 [3] | WST1-spec [3] | BIACORE (E6BP/E6AP) [1] | activation at 10 µM [2] | growth inhibition ([3]; any of these six cell lines (FIG. 3))
1 | O=C(O)CN(CCN(CC(=O)O)CC(=O)O)CC(=O)O [EDTA, reference compound] | completely eliminated complex formation | – | – | – | – | – | –
2 | COc1ccc(N2CCN(SSN3CCN(c4ccc(OC)cc4)CC3)CC2)cc1 [Compound C71] | – | 0% | + | + | – | – | –
3 | C1CCN(SSN2CCCC2)C1 [Compound C42] | – | 50.5% | + | – | + (compound interferes in binding of E6 with E6AP and E6BP, binding is less than 50% of the corresponding E6-DMSO value.) | – | –
4 | CC1(C)COCN1SSN1COCC1(C)C [Compound C82] | – | 28.4% | + | – | + (compound interferes in binding of E6 with E6AP and E6BP, binding is less than 50% of the corresponding E6-DMSO value.) | – | –
5 | CCOC(=O)N1CCN(SSN2CCN(C(=O)OCC)CC2)CC1 [Compound C41] | – | 36.8% | + | + | + (compound interferes in binding of E6 with E6AP and E6BP, binding is less than 50% of the corresponding E6-DMSO value.) | – | –
6 | O=CN(SSN(C=O)C1CCCCC1)C1CCCCC1 [Compound R26] | – | – | + | – | + (compound interferes in binding of E6 with E6AP and E6BP, binding is less than 50% of the corresponding E6-DMSO value.) | 54.9% | –
7 | CCOC(=O)CN(Cc1ccccc1)SSN(CC(=O)OCC)Cc1ccccc1 [Compound C83] | – | 22% | + | – | + (compound interferes in binding of E6 with E6AP and E6BP, binding is less than 50% of the corresponding E6-DMSO value.) | – | –
8 | S=C(SSC(=S)N1CCOCC1)N1CCOCC1 [Compound C32] | – | – | – | – | + (compound interferes in binding of E6 with E6AP and E6BP, binding is less than 50% of the corresponding E6-DMSO value.) | 80.9% | –
9 | C1CN1SSN1CC1 [Compound R24] | – | – | + | – | + (compound interferes in binding of E6 with E6AP and E6BP, binding is less than 50% of the corresponding E6-DMSO value.) | 71% | –
10 | CN1CCCN(C(=S)SSC(=S)N2CCCN(C)CC2)CC1 [Compound C35] | – | – | + | – | – | 106% | –
11 | O=C1c2ccccc2C(=O)N1SSN1C(=O)c2ccccc2C1=O [Compound C27] | – | – | + | – | + (compound interferes in binding of E6 with E6AP and E6BP, binding is less than 50% of the corresponding E6-DMSO value.) | 103% | –
12 | O=[N+]([O-])c1ccc(N2CCN(SSN3CCN(c4ccc([N+](=O)[O-])cc4)CC3)CC2)cc1 [Compound C69] | – | 0% | – | – | + (compound interferes in binding of E6 with E6AP and E6BP, binding is less than 50% of the corresponding E6-DMSO value.) | – | –
13 | C1CN(SSN2CCSCC2)CCS1 [Compound C38] | – | 41.8% | + | + | + (compound interferes in binding of E6 with E6AP and E6BP, binding is less than 50% of the corresponding E6-DMSO value.) | – | –
14 | CN1CCN(SSN2CCN(C)CC2)CC1 [Compound C39] | – | 45% | + | + | + (compound interferes in binding of E6 with E6AP and E6BP, binding is less than 50% of the corresponding E6-DMSO value.) | – | –
15 | CC1CN(SSN2CC(C)OC(C)C2)CC(C)O1 (centres unmarked) [Compound C37] | – | 40.3% | + | + | + (compound interferes in binding of E6 with E6AP and E6BP, binding is less than 50% of the corresponding E6-DMSO value.) | – | –
16 | CCN(CC)SSN(CC)CC [Compound C49] | – | 57% | + | – | + (compound interferes in binding of E6 with E6AP and E6BP, binding is less than 50% of the corresponding E6-DMSO value.) | – | –
17 | NC(=O)N=NC(N)=O [Compound C4, azodicarbonamide, reference compound] | – | – | – | – | – | – | did not cause growth inhibition
18 | OO [Compound H2O2, H2O2, reference compound] | completely eliminated complex formation | – | – | – | – | – | –
19 | c1ccc(N2CCN(SSN3CCN(c4ccccn4)CC3)CC2)nc1 [Compound C55] | – | 50.6% | + | + | + (compound interferes in binding of E6 with E6AP and E6BP, binding is less than 50% of the corresponding E6-DMSO value.) | – | –
20 | C1CCN(SSN2CCCCC2)CC1 [Compound C48] | – | 54.3% | + | + | + (compound interferes in binding of E6 with E6AP and E6BP, binding is less than 50% of the corresponding E6-DMSO value.) | – | –
21 | CC1CN1SSN1CC1C (centres unmarked) [Compound R25] | – | – | – | – | + (compound interferes in binding of E6 with E6AP and E6BP, binding is less than 50% of the corresponding E6-DMSO value.) | 30.9% | –
